For assay [1], the system named is human mixed lymphocyte reaction. The assay is described as follows: human mixed lymphocyte reaction (MLR) assay. Format: cell-based. On the procedure:
The immunosuppressant activity of the compounds of the present invention was determined using the human mixed lymphocyte reaction (MLR) assay described by Kino, T. et al. in Transplantation Proceedings, XIX(5):36-39,Suppl. 6 (1987).

Another assay relates to FKBP-12. Conditions: cited from earlier work.
The next assay relates to Candida albicans. Conditions: particularly against Candida albicans, both in vitro and in vivo; cited from earlier work.
For assay [2] the following is noted: alone or in combination with picibanil; cited from earlier work.
The subject of assay [3] is experimental allergic encephalomyelitis. As to conditions: model for multiple sclerosis; cited from earlier work.
A further assay concerns adjuvant arthritis. As to conditions: model for rheumatoid arthritis; cited from earlier work.
Assay [4] deals with formation of IgE-like antibodies. As to conditions: cited from earlier work.
For assay [5], the system named is organ grafts in histoincompatible rodents. Conditions: cited from earlier work.
A further assay concerns T-cell activation. As to conditions: cited from earlier work.
Where [6] appears, read: Mixed Leukocyte Response (MLR), Table 1, read-out: IC50.

Where two headings read alike, the source gives them in different places.

For `CO[C@H]1C[C@@H]2CC[C@@H](C)[C@@](O)(O2)C(=O)C(=O)N2CCCC[C@H]2C(=O)O[C@H]([C@H](C)C[C@@H]2CC[C@@H](OC(=O)N3CCOCC3)[C@H](OC)C2)CC(=O)[C@H](C)/C=C(\C)[C@@H](O)[C@@H](OC)C(=O)[C@H](C)C[C@H](C)/C=C/C=C/C=C/1C` [Example 3], the IC50 in assay [1] (setting [6]) was found to be 0.13 nM.

`CO[C@H]1C[C@@H]2CC[C@@H](C)[C@@](O)(O2)C(=O)C(=O)N2CCCC[C@H]2C(=O)O[C@H]([C@H](C)C[C@@H]2CC[C@H](O)[C@H](OC)C2)CC(=O)[C@H](C)/C=C(\C)[C@@H](O)[C@@H](OC)C(=O)[C@H](C)C[C@H](C)/C=C/C=C/C=C/1C` [Example 10, 42-epi-rapamycin] displayed a concentration for half-maximal inhibition (IC50) in assay [1] of 0.03 nM. For the molecule `CO[C@H]1C[C@@H]2CC[C@@H](C)[C@@](O)(O2)C(=O)C(=O)N2CCCC[C@H]2C(=O)O[C@H]([C@H](C)C[C@@H]2CC[C@@H](OC(=O)N(C)OC)[C@H](OC)C2)CC(=O)[C@H](C)/C=C(\C)[C@@H](O)[C@@H](OC)C(=O)[C@H](C)C[C@H](C)/C=C/C=C/C=C/1C` [Example 17], the IC50 in assay [1] (setting [6]) came to 0.15 nM.

For `CO[C@H]1C[C@@H]2CC[C@@H](C)[C@@](O)(O2)C(=O)C(=O)N2CCCC[C@H]2C(=O)O[C@H]([C@H](C)C[C@@H]2CC[C@H](Sc3ncc[nH]3)[C@H](OC)C2)CC(=O)[C@H](C)/C=C(\C)[C@@H](O)[C@@H](OC)C(=O)[C@H](C)C[C@H](C)/C=C/C=C/C=C/1C` [Example 38], in [1] (setting [6]), the 50% inhibitory concentration (IC50) turned out to be 0.03 nM. Regarding `CO[C@H]1C[C@@H]2CC[C@@H](C)[C@@](O)(O2)C(=O)C(=O)N2CCCC[C@H]2C(=O)O[C@H]([C@H](C)C[C@@H]2CC[C@H](Sc3nccn3C)[C@H](OC)C2)CC(=O)[C@H](C)/C=C(\C)[C@@H](O)[C@@H](OC)C(=O)[C@H](C)C[C@H](C)/C=C/C=C/C=C/1C` [Example 39], in assay [1] (setting [6]), the IC50 stood at 0.14 nM. As for `CO[C@H]1C[C@@H]2CC[C@@H](C)[C@@](O)(O2)C(=O)C(=O)N2CCCC[C@H]2C(=O)O[C@H]([C@H](C)C[C@@H]2CC[C@H](N=[N+]=[N-])[C@H](OC)C2)CC(=O)[C@H](C)/C=C(\C)[C@@H](O)[C@@H](OC)C(=O)[C@H](C)C[C@H](C)/C=C/C=C/C=C/1C` [Example 50], the IC50 in [1] (setting [6]) was determined as 0.96 nM.

As to `CO[C@H]1C[C@@H]2CC[C@@H](C)[C@@](O)(O2)C(=O)C(=O)N2CCCC[C@H]2C(=O)O[C@H]([C@H](C)C[C@@H]2CC[C@H](n3ccc(=O)cc3)[C@H](OC)C2)CC(=O)[C@H](C)/C=C(\C)[C@@H](O)[C@@H](OC)C(=O)[C@H](C)C[C@H](C)/C=C/C=C/C=C/1C` [Example 71], the concentration for half-maximal inhibition (IC50) in assay [1] (setting [6]) stood at 0.12 nM.

As for `CO[C@H]1C[C@@H]2CC[C@@H](C)[C@@](O)(O2)C(=O)C(=O)N2CCCC[C@H]2C(=O)O[C@H]([C@H](C)C[C@@H]2CC[C@H](n3ccccc3=O)[C@H](OC)C2)CC(=O)[C@H](C)/C=C(\C)[C@@H](O)[C@@H](OC)C(=O)[C@H](C)C[C@H](C)/C=C/C=C/C=C/1C` [Example 72], the IC50 in assay [1] (setting [6]) came to 0.99 nM. On to `CO[C@H]1C[C@@H]2CC[C@@H](C)[C@@](O)(O2)C(=O)C(=O)N2CCCC[C@H]2C(=O)O[C@H]([C@H](C)C[C@@H]2CC[C@H](OC)[C@H](OC)C2)CC(=O)[C@H](C)/C=C(\C)[C@@H](O)[C@@H](OC)C(=O)[C@H](C)C[C@H](C)/C=C/C=C/C=C/1C` [Example 74], for which the 50% inhibitory concentration (IC50) in assay [1] (setting [6]) is 1.81 nM. On to `C=CC[C@@H]1/C=C(\C)C[C@H](C)C[C@H](OC)[C@H]2O[C@@](O)(C(=O)C(=O)N3CCCC[C@H]3C(=O)O[C@H](/C(C)=C/[C@@H]3CC[C@@H](O)[C@H](OC)C3)[C@H](C)[C@@H](O)CC1=O)[C@H](C)C[C@@H]2OC` [FK-506], for which, in the assay on FKBP-12, the “binding to FKBP-12” value was “binds to FKBP-12”. For the molecule `CO[C@H]1C[C@@H]2CC[C@@H](C)[C@@](O)(O2)C(=O)C(=O)N2CCCC[C@H]2C(=O)O[C@H]([C@H](C)C[C@@H]2CC[C@@H](O)[C@H](OC)C2)CC(=O)[C@H](C)/C=C(\C)[C@@H](O)[C@@H](OC)C(=O)[C@H](C)C[C@H](C)/C=C/C=C/C=C/1C` [rapamycin], in the assay on Candida albicans, the antifungal activity result is “antifungal activity”. Also, the antitumor activity result in assay [2] is reported as “antitumor activity”. Moreover, the “effectiveness as an immunosuppressant” value (in assay [3]; in the assay on adjuvant arthritis) was “effective as an immunosuppressant” throughout. Further, the “inhibition of formation of IgE-like antibodies” value in assay [4] is listed as “effectively inhibit the formation of IgE-like antibodies”. Moreover, the “survival time of organ grafts” value in [5] is recorded as “prolong survival time of organ grafts”. The “inhibition of T-cell activation” value in the assay with T-cell activation is reported as “inhibit T-cell activation”. Further, the “binding to FKBP-12” value with FKBP-12 is on record as “binds to FKBP-12”.

For orientation: IC50 means the concentration that inhibits the measured activity by half.

The values above are taken from patent publication US5527907A, “Macrolide immunomodulators” (Abbott Laboratories, priority 1994, dated 1996).
